In general, pest or weed control refers to the degree to which the test organism was suppressed or injured, in per cent.

The text below walks through data of patent US10966426B2, “Herbicidal compositions comprising phenylpyrimidines” (BASF SE, priority 2016, dated 2021).

The structures appear in SMILES notation.

Format in all cases: in vivo
The subject of test [1] is Setaria viridis. The experiment in a line: greenhouse pre-emergence treatment, SETVI. The note with it: SETVI. A digest of the protocol:
(§1)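 Pre-emergence spray of compounds, alone or as combinations formulated as 10% emulsion concentrate in water, directly after sowing in loamy sand (~3.0% humus); pots hooded until rooting, kept at 10-25° C or 20-35° C per species for 2 to 4 weeks. Damage scored 0-100 (100 = no emergence/complete destruction); Colby expected value E=X+Y−(X·Y/100).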

Test [2] concerns BRAPL. The experiment in a line: greenhouse pre-emergence treatment, BRAPL. The note with it: Table X9, 21 DAT.
Test [3] deals with Lolium multiflorum. Briefly: greenhouse pre-emergence treatment, LOLMU. The note with it: Lolium multiflorum, 480 h, 20 DAT, LOLMU. A digest of the protocol: as §1
Test [4] has as its system Papaver rhoeas. Briefly: greenhouse pre-emergence treatment, PAPRH. The settings on record: 20 DAT. The text has this: (§2) The culture containers used were plastic pots containing loamy sand with approximately 3.0% of humus as substrate. The seeds of the test plants were sown separately for each species.
(§3) For the pre-emergence treatment, the active compounds, suspended or emulsified in water, were applied directly after sowing by means of finely distributing nozzles. The containers were irrigated gently to promote germination and growth and subsequently covered with transparent plastic hoods until the plants had rooted. This cover caused uniform germination of the test plants unless this was adversely affected by the active compounds.
(§4) Depending on the species, the plants were kept at 10-25° C. and 20-35° C., respectively.
(§5) The test period extended over 2 to 4 weeks. During this time, the plants were tended and their response to the individual treatments was evaluated.
(§6) Evaluation was carried out using a scale from 0 to 100. 100 means no emergence of the plants, or complete destruction of at least the above-ground parts, and 0 means no damage or normal course of growth. A good herbicidal activity is given at values of at least 70, and very good herbicidal activity is given at values of at least 85.
(§7) The respective stated components A and B, and if appropriate, C were formulated as a 10% by weight strength emulsion concentrate and, with addition of the amount of solvent system, introduced into the spray liquor used for applying the active compound. In the examples, the solvent used was water.
(§8) In the examples below, using the method of S. R. Colby (1967) “Calculating synergistic and antagonistic responses of herbicide combinations”, Weeds 15, p. 22ff., the value E, which is expected if the activity of the individual active compounds is only additive, was calculated. E=X+Y−(X·Y/100) where X=effect in percent using herbicide A at an application rate a; • Y=effect in percent using herbicide B at application rate b; • E=expected effect (in %) of herbicide A+herbicide B at application rates a+b.

Test [5] relates to Brachiaria decumbens. The experiment in a line: greenhouse pre-emergence treatment, BRADC. The settings on record: Urochloa decumbens, 480 h, 20 DAT, BRADC. A digest of the protocol:
as §1

For test [6], the system named is Poa annua. Briefly: greenhouse pre-emergence treatment, POAAN. The note with it: Poa annua, 480 h, 20 DAT; for inhibition at 500000 µg/mL (stock): sc.
Excerpt: as §2, §3, §4, §5, §6, §7, §8

Test [7] has as its system Matricaria chamomilla. Briefly: greenhouse pre-emergence treatment, MATCH. The note with it: Matricaria chamomilla, 480 h, 20 DAT.
Excerpt: as §2, §3, §4, §5, §6, §7, §8

The subject of test [8] is Polygonum convolvulus. Briefly: greenhouse pre-emergence treatment, POLCO. The note with it: Fallopia convolvulus, 480 h, 20 DAT, POLCO. A digest of the protocol:
as §1

In test [9] the test system is Bromus sterilis. Briefly: greenhouse pre-emergence treatment, BROST. The note with it: Bromus sterilis, 480 h, 20 DAT, BROST. A digest of the protocol:
as §1

Test [10] relates to Galium aparine. Briefly: greenhouse pre-emergence treatment, GALAP. The note with it: Galium aparine, 480 h, solo, EC 800 g/l, GALAP, 500 gai/ha, 20 DAT. A digest of the protocol: as §1
In test [11] the test system is Echinocloa crus-galli. Briefly: greenhouse pre-emergence treatment, ECHCG. The settings on record: 20 DAT; for % activity: terbuthylazin solo (SC 500 g/l).
Excerpt: as §2, §3, §4, §5, §6, §7, §8

Test [12] relates to Apera spica-venti. Briefly: greenhouse pre-emergence treatment, APESV. The note with it: Apera spica-venti, sc, 480 h, 20 DAT. A digest of the protocol:
as §1

Test [13] deals with Lolium perenne. Briefly: greenhouse post-emergence treatment, LOLPE. The settings on record: solo terbuthylazin (SC 500 g/l) 125 gai/ha, 20 DAT, 2nd series of rows. The procedure:
as §2
To this end, the test plants were either sown directly, and grown in the same containers, or they were first grown separately as seedlings and transplanted into the test containers a few days prior to treatment.
as §4, §5, §6
In the examples, the solvent used was water.
In the examples below, using the method of S. R. Colby (1967) “Calculating synergistic and antagonistic responses of herbicide combinations”, Weeds 15, p. […] E=X+Y−(X·Y/100) where X=effect in percent using herbicide A at an application rate a; • Y=effect in percent using herbicide B at application rate b; • E=expected effect (in %) of herbicide A+herbicide B at application rates a+b.

Test [14] relates to Alopecurus myosuroides. The experiment in a line: greenhouse pre-emergence treatment, ALOMY. The settings on record: Alopecurus myosuroides, 480 h, 20 DAT, solo terbuthylazin (SC 500 g/l) 250 gai/ha. A digest of the protocol:
as §1

For test [15], the system named is Digitaria sanguinalis. Briefly: greenhouse pre-emergence treatment, DIGSA. The note with it: Digitaria sanguinalis, sc, 480 h, DIGSA, 20 DAT. A digest of the protocol:
as §1

The test system of test [16] is Avena fatua. The experiment in a line: greenhouse pre-emergence treatment, AVEFA. The settings on record: Avena fatua, 480 h, AVEFA, 20 DAT, solo terbuthylazin (SC 500 g/l) 500 gai/ha. A digest of the protocol:
as §1

Test [17] relates to Ambrosia elatior. The experiment in a line: greenhouse pre-emergence treatment, AMBEL. The note with it: Ambrosia artemisiifolia, 480 h, terbuthylazin solo (SC 500 g/l), 500 gai/ha, 20 DAT, AMBEL. A digest of the protocol:
as §1

Test [18] relates to Stellaria media. The experiment in a line: greenhouse pre-emergence treatment, STEME. The note with it: Stellaria media, 480 h, 20 DAT, solo terbuthylazin (SC 500 g/l) 62.5 gai/ha.
Excerpt: as §2, §3, §4, §5, §6, §7, §8

Setting [19] is: prosulfocarb solo 250 gai/ha, read-out: % activity.
Setting [20] is: sc, solo terbuthylazin (SC 500 g/l) 250 gai/ha.
The mark [21] stands for this setting: sc, solo terbuthylazin (SC 500 g/l) 500 gai/ha.
[22] abbreviates: solo terbuthylazin (SC 500 g/l) 62.5 gai/ha.
Setting [23] is: solo terbuthylazin (SC 500 g/l) 125 gai/ha.
Where [24] appears, read: solo terbuthylazin (SC 500 g/l) 250 gai/ha.

On to `O=C(Nc1ccc(F)cc1F)c1cccnc1Oc1cccc(C(F)(F)F)c1` [diflufenican], for which the “% activity” value in [1] (Table X9, 21 DAT, solo diflufenican (SC 500 g/l) 60 gai/ha) was determined as 70%; in [2] (solo diflufenican (SC 500 g/l) 15 gai/ha) it was 0%; in test [2] (solo diflufenican (SC 500 g/l) 30 gai/ha), 0%; in [2] (solo diflufenican (SC 500 g/l) 120 gai/ha) it was 20%.
Take `CCCN(CCC)C(=O)SCc1ccccc1` [prosulfocarb]: the inhibition at 250 g/ha came to 30% in test [3] (prosulfocarb solo 250 gai/ha); 40% in [1] (Setaria viridis, 480 h, prosulfocarb solo 250 gai/ha, 20 DAT); 0% in test [7] (prosulfocarb solo 250 gai/ha); 0% in test [8] (setting [19]); 0% in [9] (setting [19]). For the same molecule, the inhibition at 1000 g/ha in test [4] (Papaver rhoeas, 480 h, prosulfocarb solo 1000 gai/ha) was 70%; in test [1] (Setaria viridis, 480 h, prosulfocarb solo 1000 gai/ha, 20 DAT) it was 85%; in test [7] (prosulfocarb solo 1000 gai/ha), 65%; in test [8] (prosulfocarb solo 1000 gai/ha), 80%; in [9] (prosulfocarb solo 1000 gai/ha), 50%. Moreover, the “% activity” value was 70% in [4] (solo, EC 800 g/l, 1000 gai/ha) and 10% in test [1] (solo, EC 800 g/l, 125 gai/ha, 20 DAT). Also, the % herbicidal activity (weed control, 0-100 scale) at 250 g/ha in test [5] (prosulfocarb solo 250 gai/ha) was found to be 0%. The % herbicidal activity (weed control, 0-100 scale) at 500 g/ha in [5] (prosulfocarb solo 500 gai/ha) was 20%. Moreover, in test [6] (prosulfocarb solo 125 gai/ha), the inhibition at 125 g/ha was found to be 0%. Moreover, the inhibition at 500 g/ha in test [9] (prosulfocarb solo 500 gai/ha) was found to be 40%. Moreover, the pest or weed control at 500 g/ha in test [10] came to 30%.
As to `CCNc1nc(Cl)nc(NC(C)(C)C)n1` [terbuthylazin, terbuthylazine], the inhibition at 500000 µg/mL in [11] (Echinochloa crus-galli, 480 h, solo terbuthylazin (SC 500 g/l) 500 gai/ha) is 0%; in test [3] (setting [21]), 35%; in test [8] (setting [21]) it was 65%; in test [15] (solo terbuthylazin (SC 500 g/l) 500 gai/ha), 20%; in test [16] it was 0%. The “% activity” value was determined as 0% in test [11] (62.5 gai/ha); 0% in [11] (125 gai/ha); 35% in test [13]; 0% in test [1] (terbuthylazin solo (SC 500 g/l), 62.5 gai/ha, 20 DAT); 0% in test [1] (terbuthylazin solo (SC 500 g/l), 125 gai/ha, 20 DAT); 0% in test [1] (terbuthylazin solo (SC 500 g/l), 250 gai/ha, 20 DAT). The inhibition at 500000 µg/mL (stock) was found to be 0% in [3] (sc, solo terbuthylazin (SC 500 g/l) 125 gai/ha); 10% in test [3] (setting [20]); 0% in test [12] (setting [22]); 50% in test [12] (setting [23]); 0% in test [6] (setting [22]); 30% in test [6] (setting [23]). For the same molecule, the inhibition at 500000 µg/mL (stock) stood at 70% in [6] (setting [24]); 0% in test [1] (Setaria viridis, 480 h, 20 DAT, solo terbuthylazin (SC 500 g/l) 250 gai/ha); 0% in [8] (setting [20]); 0% in test [9] (setting [24]); 40% in test [14]; 0% in test [15] (setting [23]). Besides, the inhibition at 500000 µg/mL (stock) was determined as 0% in test [15] (setting [24]) and 70% in test [18]. Further, the pest or weed control at 500000 µg/mL, 500 g/ha in test [8] (terbuthylazin solo (SC 500 g/l), 500 gai/ha) stood at 65%; in test [17], 65%.
